According to patent US20250340551A1, “SMALL MOLECULE MODULATORS OF STAT6” (Gilead Sciences, Inc., priority 2024, published 2025):

biological target: human STAT6 (Homo sapiens (Human), UniProt P42226); assay: Surface plasmon resonance assay (Biacore 8K, binding to immobilized STAT6); conditions: human STAT6 aa122-658, N-terminal His-tag, CM5 chip, 25° C.; geometric mean; read-out: STAT6 SPR Kd
Protocol: Biacore instruments from the 8K-series (Cytiva) were used, and measurements were performed at 25° C. Human STAT6 (truncated, aa122-658, with N-terminal His-tag, expressed in insect cells) was immobilized in the active flow cells on a CM5 chip using amine-coupling (default settings) at 10 μg/ml in 10 mM acetate buffer pH 5.5, at a contact time of 120-420 sec. and a flow rate of 10 μl/min. Reference flow cells were deactivated using blank immobilization. PBS-P+ (Cytiva) supplemented with 2% DMSO was used as running buffer, and solvent correction was applied. Compounds were tested by multi-cycle kinetics injections using a contact time of 60 sec., dissociation time of up to 300 sec., and a flow rate of 30 μl/min.
Solvent-corrected, reference-subtracted and blank-corrected data was processed and binding isotherms were fitted according to a single report point from each sensorgram (Standard: Late binding (5 sec. before injection end); alternative: Earlier report point according to binding profile). Data fitting was done both with unfixed Rmax and with Rmax fixed to the theoretical value* assuming 1:1 binding to allow processing of data from both weak and strong binders as well as to evaluate binding stoichiometry.
Positive controls were run at the beginning, during, and at the end of the screen to evaluate surface activity.

Chain of human STAT6 (P42226 122-658): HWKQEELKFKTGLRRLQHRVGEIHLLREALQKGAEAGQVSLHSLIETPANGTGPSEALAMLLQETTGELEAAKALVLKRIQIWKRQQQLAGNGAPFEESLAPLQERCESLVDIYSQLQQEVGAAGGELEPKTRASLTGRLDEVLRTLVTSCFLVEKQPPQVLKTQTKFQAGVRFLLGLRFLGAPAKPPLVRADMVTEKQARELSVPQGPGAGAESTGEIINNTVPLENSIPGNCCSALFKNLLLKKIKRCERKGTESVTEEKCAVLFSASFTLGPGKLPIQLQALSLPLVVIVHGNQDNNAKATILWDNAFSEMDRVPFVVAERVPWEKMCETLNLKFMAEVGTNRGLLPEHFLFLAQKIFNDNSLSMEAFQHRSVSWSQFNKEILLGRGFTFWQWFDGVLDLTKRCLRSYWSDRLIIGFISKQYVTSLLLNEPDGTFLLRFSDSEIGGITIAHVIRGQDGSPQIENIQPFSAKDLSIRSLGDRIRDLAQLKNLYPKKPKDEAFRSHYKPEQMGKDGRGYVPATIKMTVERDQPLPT

Kd [nM] | Compound
835 | 4-(1-((4-(6-Amino-5-methoxypyridin-3-yl)-1-methyl-1H-pyrrolo[2,3-b]pyridin-2-yl)methyl)piperidin-4-yl)-N,N-dimethylbenzamide [Example 1k7]
116 | CC(=O)Nc1ccc(-c2ccnc3c2cc(CN2CC[C@H](c4ccc(C(=O)N(C)C)cc4)[C@@H](C)C2=O)n3C)cc1 (single isomer, unassigned) [1aa2′]
203 | CC(=O)Nc1ccc(-c2ccnc3c2cc(CN2CC[C@@H](c4ccc(C(=O)N(C)C)cc4)[C@H](C)C2=O)n3C)cc1 (single isomer, unassigned) [Example 1aa2]
46.4 | CN(C)C(=O)c1ccc(C2CCN(Cc3cc4c(-c5ccc(N)nc5)ccnc4n3C)C(=O)C2)cc1 (single isomer, unassigned) [Example 1ae5]
222 | CNc1ccc(-c2ccnc3c2cc([C@H](C)N2CCC(c4ccc(C(=O)N(C)C)cc4)CC2)n3C)cn1 (single isomer, unassigned) [Example 1af7]
2560 | C[C@H]1C[C@H](c2ccc(C(=O)N(C)C)cc2)CCN1Cc1cc2c(-c3ccc(N)nc3C#N)ccnc2n1C (single isomer, unassigned) [Example 1q2]
4240 | C[C@@H]1C[C@@H](c2ccc(C(=O)N(C)C)cc2)CCN1Cc1cc2c(-c3ccc(N)nc3C#N)ccnc2n1C (single isomer, unassigned) [Example 1q3]
5350 | C[C@@H]1C[C@@H](c2ccc(C(=O)N(C)C)cc2)CCN1Cc1cc2c(-c3ccc(N)cn3)ccnc2n1C (single isomer, unassigned) [Example 1q7]
36.7 | CNc1ccc(-c2ccnc3c2cc(CN2CC[C@H](c4ccc(C(=O)N(C)C)cc4)[C@@H](F)C2)n3C)cn1 (single isomer, unassigned) [Example 1s24]
35.3 | CNc1ccc(-c2ccnc3c2cc(CN2CC[C@@H](c4ccc(C(=O)N(C)C)cc4)[C@H](F)C2)n3C)cn1 (single isomer, unassigned) [Example 1s25]
6600 | [2H]C([2H])([2H])N(C(=O)c1ccc(C2=CCN(C(C)c3cc4c(-c5ccc(N)nc5C#N)ccnc4n3C)CC2)cc1)C([2H])([2H])[2H] (stereo in doubt) [Example 1af22, (R)-4-(1-(1-(4-(6-Amino-2-cyanopyridin-3-yl)-1-methyl-1H-pyrrolo[2,3-b]pyridin-2-yl)ethyl)-1,2,3,6-tetrahydropyridin-4-yl)-N,N-bis(methyl-d3)benzamide]
51.3 | [2H]C([2H])([2H])N(C(=O)c1ccc(C2=CCN(C(C)c3cc4c(-c5ccc(N)nc5C#N)ccnc4n3C)CC2)cc1)C([2H])([2H])[2H] (stereo in doubt) [Example 1af24, (S)-4-(1-(1-(4-(6-amino-2-cyanopyridin-3-yl)-1-methyl-1H-pyrrolo[2,3-b]pyridin-2-yl)ethyl)-1,2,3,6-tetrahydropyridin-4-yl)-N,N-bis(methyl-d3)benzamide]
139 | CNc1ccc(-c2ccnc3c2cc(CN2CC[C@H](c4ccc(C(=O)N(C)C)cc4)[C@@H](F)C2)n3C)nc1 (stereo in doubt) [Example 1o18, 4-((3R,4R)-3-fluoro-1-((1-methyl-4-(5-(methylamino)pyridin-2-yl)-1H-pyrrolo[2,3-b]pyridin-2-yl)methyl)piperidin-4-yl)-N,N-dimethylbenzamide]
3980 | C[C@H]1C[C@H](c2ccc(C(=O)N(C)C)cc2)CCN1Cc1cc2c(-c3ccc(N)cn3)ccnc2n1C (stereo in doubt) [Example 1q8, N,N-dimethyl-4-[(2S,4R)-1-[[4-(5-amino-2-pyridyl)-1-methyl-pyrrolo[2,3-b]pyridin-2-yl]methyl]-2-methyl-4-piperidyl]benzamide]
23.2 | CNc1ccc(-c2ccnc3c2cc(CN2CCC(c4ccc(C(=O)N(C)C)cc4)CC2=O)n3C)cn1 (stereo in doubt) [Example 1s3, N,N-Dimethyl-4-[(4R)-1-[[1-methyl-4-[6-(methylamino)-3-pyridyl]pyrrolo[2,3-b]pyridin-2-yl]methyl]-2-oxo-4-piperidyl]benzamide]
51.1 | CNc1ccc(-c2ccnc3c2cc(CN2CCC(c4ccc(C(=O)N(C)C)cc4)CC2=O)n3C)cn1 (stereo in doubt) [Example 1s4, N,N-dimethyl-4-[(4S)-1-[[1-methyl-4-[6-(methylamino)-3-pyridyl]pyrrolo[2,3-b]pyridin-2-yl]methyl]-2-oxo-4-piperidyl]benzamide]
40.6 | CNc1ccc(-c2ccnc3c2cc(CN2CC[C@@H](c4ccc(C(=O)N(C)C)cc4)[C@@H](F)C2)n3C)cn1 (stereo in doubt) [Example 1s27, N,N-Dimethyl-4-[(3R,4S)-3-fluoro-1-[[1-methyl-4-[6-(methylamino)-3-pyridyl]pyrrolo[2,3-b]pyridin-2-yl]methyl]-4-piperidyl]benzamide]
79.4 | CN(C)C(=O)c1ccc(C2CCN(Cc3cc4c(-c5ccc(N)c(O)n5)ccnc4n3C)CC2)cc1 [Example 1ad1, 4-(1-((4-(5-Amino-6-hydroxypyridin-2-yl)-1-methyl-1H-pyrrolo[2,3-b]pyridin-2-yl)methyl)piperidin-4-yl)-N,N-dimethylbenzamide]
54 | COc1nc(-c2ccnc3c2cc(CN2CCC(c4ccc(C(=O)N(C)C)cc4)CC2)n3C)ccc1N [Example 1ad2, 4-(1-((4-(5-Amino-6-methoxypyridin-2-yl)-1-methyl-1H-pyrrolo[2,3-b]pyridin-2-yl)methyl)piperidin-4-yl)-N,N-dimethylbenzamide]
2730 | CNc1ccc(-c2ccnc3c2cc(CN2CCC(c4ccc(C(=O)N(C)C)cc4)CC2)n3C(C)C)cn1 [Example 1ad3, 4-[1-[[1-iso-Propyl-4-[6-(methylamino)-3-pyridyl]pyrrolo[2,3-b]pyridin-2-yl]methyl]-4-piperidyl]-N,N-dimethyl-benzamide]
24.5 | CN(C)C(=O)c1ccc([C@@H]2CCN(Cc3cc4c(-c5ccc(N)nc5)ccnc4n3C)C(=O)C2)cc1 [Example 1ae4, (R)—N,N-Dimethyl-4-[1-[[4-(6-amino-3-pyridyl)-1-methyl-pyrrolo[2,3-b]pyridin-2-yl]methyl]-2-oxo-4-piperidyl]benzamide]
67.8 | CN(C)C(=O)c1ccc(N2CCN(Cc3cc4c(-c5ccc(N)nc5)ccnc4n3C)C(=O)C2)cc1 [Example 1ae7, 4-[4-[[4-(6-Amino-3-pyridyl)-1-methyl-pyrrolo[2,3-b]pyridin-2-yl]methyl]-3-oxo-piperazin-1-yl]-N,N-dimethyl-benzamide]
25.4 | [2H]C([2H])([2H])N(C(=O)c1ccc(C2CCN(Cc3cc4c(-c5ccc(N)cn5)ccnc4n3C)CC2)cc1)C([2H])([2H])[2H] [Example 1ae10, 4-[1-[[4-(5-Amino-2-pyridyl)-1-methyl-pyrrolo[2,3-b]pyridin-2-yl]methyl]-4-piperidyl]-N,N-bis(trideuteriomethyl)benzamide]
194 | CNC(=O)c1ccc(C2CCN(Cc3cc4c(-c5ccc(N)nc5C#N)ccnc4n3C)CC2)cc1 [Example 1ae14, 4-[1-[[4-(6-Amino-2-cyano-3-pyridyl)-1-methyl-pyrrolo[2,3-b]pyridin-2-yl]methyl]-4-piperidyl]-N-methyl-benzamide]
201 | [2H]C([2H])([2H])NC(=O)c1ccc(C2CCN(Cc3cc4c(-c5ccc(N)nc5C#N)ccnc4n3C)CC2)cc1 [Example 1ae15, 4-[1-[[4-(6-Amino-2-cyano-3-pyridyl)-1-methyl-pyrrolo[2,3-b]pyridin-2-yl]methyl]-4-piperidyl]-N-(trideuteriomethyl)benzamide]
102 | C[C@@H](c1cc2c(-c3ccc(N)nc3)ccnc2n1C)N1CCC(c2ccc(C(=O)N(C)C)cc2)CC1 [Example 1af11, (S)-4-(1-(1-(4-(6-amino-pyridin-3-yl)-1-methyl-1H-pyrrolo[2,3-b]pyridin-2-yl)ethyl)-piperidin-4-yl)-N,N-dimethyl-benzamide]
691 | C[C@@H](c1cc2c(-c3ccc(N)nc3C#N)ccnc2n1C)N1CCC(c2ccc(C(=O)N(C)C)cc2)CC1 [Example 1af13, (S)-4-(1-(1-(4-(6-amino-2-cyanopyridin-3-yl)-1-methyl-1H-pyrrolo[2,3-b]pyridin-2-yl)ethyl)piperidin-4-yl)-N,N-dimethylbenzamide]
438 | C[C@@H](c1cc2c(-c3ccc(N)cn3)ccnc2n1C)N1CCC(c2ccc(C(=O)N(C)C)cc2)CC1 [Example 1af15, (S)-4-(1-(1-(4-(5-amino-pyridin-2-yl)-1-methyl-1H-pyrrolo[2,3-b]pyridin-2-yl)-ethyl)piperidin-4-yl)-N,N-dimethylbenzamide]
15.5 | C[C@H](c1cc2c(-c3ccc(N)cn3)ccnc2n1C)N1CCC(c2ccc(C(=O)N(C)C)cc2)CC1 [Example 1af16, (R)-4-(1-(1-(4-(5-aminopyridin-2-yl)-1-methyl-1H-pyrrolo[2,3-b]pyridin-2-yl)ethyl)piperidin-4-yl)-N,N-dimethylbenzamide]
6400 | Cc1cc(C(=O)N(C)C)ccc1C1CCN([C@@H](C)c2cc3c(-c4ccc(N)cn4)ccnc3n2C)CC1 [Example 1af17, (S)-4-(1-(1-(4-(5-aminopyridin-2-yl)-1-methyl-1H-pyrrolo[2,3-b]pyridin-2-yl)ethyl)piperidin-4-yl)-N,N,3-trimethylbenzamide]
